This is an account of results in PubChem BioAssay (NCI).

Where “and” joins values, the source holds several entries; their conditions need not be identical. Identical values can stand only once.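 Assay format: 96-well plates, 48-hour exposure. Abbreviation: GI50, concentration required for 50% inhibition of growth. TGI: total growth inhibition.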

One test concerns HT29 colon. The test can be described thus: DTP human tumour cell line panel, 48 h.
The GI50 is the concentration at which growth is held to half of that of the control. One may read the TGI as the concentration at which net growth stops. Higher therefore signals less potent growth arrest. As to `COC12C(COC(=O)NCCO)C3=C(C(=O)C(C)=C(N)C3=O)N1CC1NC12` (stereo not given), the GI50 is 52.7 µM and the TGI was more than 264 µM.
For `Nc1nccc(-c2c(-c3ccc(F)cc3)nn3cc(C(F)(F)F)ccc23)n1`, in that order: more than 25 µM and more than 25 µM.
For `C#Cc1ccc(-n2c(/C=C/c3ccc(O)cc3)nc3ncccc3c2=O)cc1`, in that order: 52.8 µM and more than 100 µM.
In the case of `O=C(O)CN(CCN(CC(=O)O)CC(=O)O)CC(=O)O.[Mn+2]`, the GI50 is more than 100 µM and the TGI was more than 100 µM.
Turning to `N#CC(C#N)=C/C=C(\Sc1ccc(Cl)cc1)c1ccc(F)cc1`, the GI50 was 2.06 µM and the TGI was more than 51.6 µM.
For `CCSCC1CC(O)(c2ccccc2)C(c2ccccc2)C(c2ccc(F)cc2)O1` (stereo not given), in that order: 1.95 µM and 6.21 µM.
For `CCO/C=C1\SC(=S)N(c2ccc(OCC)cc2)C1=O`, the TGI is more than 100 µM.

The subject of a further test is M14 melanoma. The experiment in a line: DTP human tumour cell line panel, 48 h.
Consider `O=C(c1cccs1)c1c(C(F)(F)F)n([O-])c2cc(Cl)c(Cl)cc2[n+]1=O`, for which the GI50 was 0.906 µM and the TGI was 2.45 µM.
For `CSc1nc2nc(-c3ccccc3)c(C)c-2c2n1C(C)C(=O)N2` (stereo not given), in that order: 38.6 µM and more than 100 µM.
On to `C=CCN(CC=C)C(=O)c1cc(C)nc2c1c(=O)n(-c1ccccc1)c(=O)n2CCCN1CCN(c2ccccc2OC)CC1`, for which the GI50 was more than 50 µM and the TGI is more than 50 µM.
For `CCN(CC)c1ccc2nc3ccc(=[N+](CC)CC)cc-3oc2c1`, the GI50 is 0.0903 µM and the TGI amounted to 1.71 µM.
As for `CN1CCN(c2c(F)cc(NC3=C(Cl)C(=O)c4ncccc4C3=O)cc2F)CC1`, the GI50 was 4.34 µM and the TGI was found to be 15.3 µM.
With `COc1cc2nnc3c4cccnc4[nH]c3c2cc1OC`, the GI50 was 8.18 µM and 1.79 µM; the TGI was 27.4 µM and 3.49 µM.
Regarding `Cc1ccc(S(=O)(=O)NCCCCC(N)C(=O)O)cc1` (stereo not given), the TGI was more than 100 µM.
Same read-out and setting: with `CCOC(=O)/C(=C\c1cccc(C)c1)C(C)=O` the figure was 44.3 µM.
Turning to `Cc1cccc(Cn2cc(CO)c3cnccc32)c1`, the GI50 was more than 100 µM and the TGI was more than 100 µM.
Take `COC12C(COC(=O)NCCO)C3=C(C(=O)C(C)=C(N)C3=O)N1CC1NC12` (stereo not given): the GI50 is 49.9 µM and the TGI was more than 264 µM.
For `Nc1nccc(-c2c(-c3ccc(F)cc3)nn3cc(C(F)(F)F)ccc23)n1`, in that order: more than 25 µM and more than 25 µM.
On to `C#Cc1ccc(-n2c(/C=C/c3ccc(O)cc3)nc3ncccc3c2=O)cc1`, for which the GI50 was 2.7 µM and the TGI was found to be 8.08 µM.
For `O=C(O)CN(CCN(CC(=O)O)CC(=O)O)CC(=O)O.[Mn+2]`, in that order: more than 100 µM and more than 100 µM.
For `N#CC(C#N)=C/C=C(\Sc1ccc(Cl)cc1)c1ccc(F)cc1`, in that order: 0.729 µM and 2.61 µM.
For `CCSCC1CC(O)(c2ccccc2)C(c2ccccc2)C(c2ccc(F)cc2)O1` (stereo not given), in that order: 1.74 µM and 3.23 µM.
Compound `CCO/C=C1\SC(=S)N(c2ccc(OCC)cc2)C1=O` came in with a TGI of more than 100 µM.

A further test deals with MDA-MB-231 breast. The experiment in a line: DTP human tumour cell line panel, 48 h.
In the case of `O=C(c1cccs1)c1c(C(F)(F)F)n([O-])c2cc(Cl)c(Cl)cc2[n+]1=O`, the GI50 is 0.647 µM and the TGI came to 2.07 µM.
For the compound `CSc1nc2nc(-c3ccccc3)c(C)c-2c2n1C(C)C(=O)N2` (stereo not given), the GI50 was 83.4 µM and the TGI was more than 100 µM.
For `C=CCN(CC=C)C(=O)c1cc(C)nc2c1c(=O)n(-c1ccccc1)c(=O)n2CCCN1CCN(c2ccccc2OC)CC1`, in that order: more than 50 µM and more than 50 µM.
Turning to `CCN(CC)c1ccc2nc3ccc(=[N+](CC)CC)cc-3oc2c1`, the GI50 is 0.0667 µM and the TGI is 2.96 µM.
For `CN1CCN(c2c(F)cc(NC3=C(Cl)C(=O)c4ncccc4C3=O)cc2F)CC1`, the GI50 was 3.47 µM and the concentration for total growth inhibition (TGI) turned out to be 12.3 µM.
As for `COc1cc2nnc3c4cccnc4[nH]c3c2cc1OC`, the GI50 was 3.14 µM and 2.69 µM; the TGI was 50 µM and > 100 µM.
For the compound `Cc1ccc(S(=O)(=O)NCCCCC(N)C(=O)O)cc1` (stereo not given), the TGI was more than 100 µM.
The same measure, in the same setting: with `CCOC(=O)/C(=C\c1cccc(C)c1)C(C)=O` the figure was 28.9 µM.
Turning to `Cc1cccc(Cn2cc(CO)c3cnccc32)c1`, the GI50 was more than 100 µM and the TGI was more than 100 µM.
The compound `COC12C(COC(=O)NCCO)C3=C(C(=O)C(C)=C(N)C3=O)N1CC1NC12` (stereo not given) returned a TGI of more than 264 µM.
For `Nc1nccc(-c2c(-c3ccc(F)cc3)nn3cc(C(F)(F)F)ccc23)n1`, the GI50 is more than 25 µM and the TGI is more than 25 µM.
Take `C#Cc1ccc(-n2c(/C=C/c3ccc(O)cc3)nc3ncccc3c2=O)cc1`: the GI50 was 11.4 µM and the TGI was more than 100 µM.
For `O=C(O)CN(CCN(CC(=O)O)CC(=O)O)CC(=O)O.[Mn+2]`, the GI50 is more than 100 µM and the total growth inhibition concentration (TGI) is more than 100 µM.
Regarding `N#CC(C#N)=C/C=C(\Sc1ccc(Cl)cc1)c1ccc(F)cc1`, the GI50 is 1.84 µM and the TGI is 6.25 µM.
For `CCSCC1CC(O)(c2ccccc2)C(c2ccccc2)C(c2ccc(F)cc2)O1` (stereo not given), in that order: 2.58 µM and 8.3 µM.
Compound `CCO/C=C1\SC(=S)N(c2ccc(OCC)cc2)C1=O` registered a TGI of more than 100 µM.
